The subject of one data set is MUM24 cells. The data set is described as follows: Combination treatment with bortezomib or lenalidomide, MTT assay. The data set is classed as cell-based, human. As to conditions: GTN057 with bortezomib or lenalidomide. The procedure:
FIGURE 1 GTN057 induced the cell death of MM cells in vitro. (A) The chemical structure of GTN057 and the putative degradation product, GTN054. (B) GTN057 induced the cell death of the MM cell lines. The cells were incubated with GTN057 for 48 h, and the number of viable cells was counted by trypan blue exclusion test. Bars: mean ± SD (n = 3). *p < 0.05 versus control. (C) Growth‐inhibitory effects of GTN057 on CD138‐positive cells obtained from MM patients' bone marrow. Cells were treated with GTN057. The viability was evaluated by an MTT assay. Bars: mean ± SD (n = 3). *p < 0.05 versus control. (D) Combination treatment of GTN057 with bortezomib (Btz) or lenalidomide (Len), two major standard myeloma drugs, in MUM24 cells. The viability was evaluated by an MTT assay. Bars: mean ± SD (n = 3). *p < 0.05 versus GTN057 alone. […]
For the 3‐[…] (MTT) assay (Roche Diagnostics), 6 × 10^4 cells/mL of CD138‐positive bone marrow cells were cultured in 96‐well plates in triplicate with various concentrations of GTN057 for 48 h. The cell viability was examined by MTT dye absorbance in accord with the manufacturer's manual. […]

A short description of data set [1]: Pharmacokinetic study, LC-MS/MS of plasma. Type of data set: in vivo, ICR mice. Here is the method:
For the pharmacokinetic study, 0 or 100 mg/kg of GTN057 (1% Tween® 80 + 10% DMSO in saline) was injected (i.p.) into male 5‐week‐old ICR mice. Peripheral blood samples were taken using heparinized hematocrit tubes from the tail vein of each mouse at 0, 15, and 30 min and 1, 2, 4, and 24 h. The blood samples were applied to centrifugation (1100 × g, 15 min at 4°C) and we then collected the supernatant plasma. […] (Wako) and MeOH (Kanto, Tokyo) for LC–MS/MS (liquid chromatography–tandem mass spectrometry) measurements were mixed in a 1:1 ratio, and verapamil hydrochloride (an internal standard substance) was dissolved to the final concentration of 120 ng/mL to prepare a deproteinizing agent. We diluted the blood samples four times with this deproteinizing agent. After 15 min on ice, each deproteinized plasma sample was centrifuged (9100 × g, 10 min, 4°C). The supernatants were collected and used for the LC–MS/MS analyses.
All compounds including GTN057 were analyzed with a mass spectrometer (AB SCIEX) coupled to an HPLC (high‐performance liquid chromatography) system (Shimadzu). The peptides were separated with the use of an Atlantis® dC18, 3‐μm, 100 Å column (Waters). The solvent composition was 15% for solution A (100 mM CH3COONH4) and 85% for solution B (CH3OH). The HPLC measurement settings were as follows. Constant flow rate: 0.2 mL/min, column temperature: 40°C. The MS settings were: spray voltage, 5500 V; turbo heater temperature, 300°C.

The test system of data set [2] is FGF-2 stimulated ERK1/2, STAT3, AKT1 phosphorylation. The data set is described as follows: Western blot, FGF-2-stimulated signaling in KMS11 cells. Type of data set: cell-based, human. As to conditions: KMS11 cells stimulated by FGF-2. Here is the method:
MM cells (4 × 10^5 cells/mL) were incubated with 0–20 μM GTN057 for 12 h. The cells were then co‐cultured with 0–50 ng/mL of hepatocyte growth factor (HGF) (PeproTech, London) or 0–20 ng/mL of fibroblast growth factor (FGF)‐2 (PeproTech) with 1 unit/mL of heparin in RPMI containing 4% dialyzed FCS (Gibco) for the KMS11 and KMS34 cells and 10% dialyzed FCS for the KMS21 cells for 15 min at RT (room temperature). A549 cells were co‐cultured with 0–50 ng/mL of epidermal growth factor (EGF) (PeproTech) in Eagle's MEM containing 4% dialyzed FCS for 15 min at RT. […]
The protein concentrations were measured using a BCA Protein Assay Kit (Thermo Fisher Scientific). […]
Antibodies against phospho‐STAT3 (Tyr705), phospho‐Akt (Ser473), p44/42 MAPK (Erk 1/2), phosphor‐p44/42 MAPK (Thr202/Tyr 204), and phospho‐c‐Met (Tyr1234/1235) (all from Cell Signaling Technology, Danvers, MA) or STAT3, Akt, c‐Met, and β‐actin (all from Santa Cruz Biotechnology, Santa Cruz, CA) or phospho‐c‐Met (Tyr1230/1234/1235) (Biosource, Camarillo, CA for KMS34 cells in Figure 3A) were each used at 1:1000 dilution. […] The Western blotting signals were detected by enhanced ECL chemiluminescence (Amersham). The signal intensity of each band was quantified densitometrically with ImageJ software (ver. 1.48, U.S. National Institutes of Health).
(In general: Immunoblotting shows a protein as a band on a membrane.)

Where [3] appears, read: male, mouse, ip, single i.p. injection 100 mg/kg, ICR mice, plasma.

Several values for one entry are separate records, joined by “and”; a condition that tells them apart may be missing. Equal values may be shown once.

One may read the Cmax as the maximum level reached in the sampled fluid or tissue. The term Tmax denotes the time from dosing to the highest level.

For the compound `COc1c(OC(C)=O)c2c(c(O)c1C(C)C)C(=O)CC1C(C)(C)CCC[C@]1(O)C2` (stereo partly shown) [GTN057], the “Effect of combination treatment” value in the data set with MUM24 cells was “additive anti‐myeloma effect”. In data set [1] (setting [3]), the maximum concentration (Cmax) is 790 ng/mL and 1.95 µM; the time to peak (Tmax) is 30 min. For the same compound, the Degradation in plasma entry in data set [1] (plasma, LC-MS/MS, preliminary data) is recorded as “immediately dehydrated (m/z 387) or deacetylated (m/z 363) in plasma”. The compound also came in with a plasma disappearance half-time in data set [1] (single i.p. injection 100 mg/kg, ICR mice) of 110 min. Moreover, the “Presence in blood at 24 h post-injection” value in data set [1] (single i.p. injection 100 mg/kg, ICR mice, 24 h) is listed as “almost completely disappeared”. Besides, in data set [2], the “ERK1/2, STAT3, AKT1 phosphorylation levels” value is given as “did not clearly change”.

Values taken from article PMC10166914, “GTN057, a komaroviquinone derivative, induced myeloma cells' death in vivo and inhibited c‐MET tyrosine kinase” (Cancer Medicine, 2023).
